Test systems include OVCAR-3; Hs-578T; SK-MEL-28; HOP-92; U-251; SW-620; UACC-257; HCC 2998; SN12C; COLO 205; HT-29; MOLT-4; SF-539; M14; K562; OVCAR-8; NCI-H522; SNB-19; Malme-3M; RXF 393.
Holding throughout (assay): inhibition of tumour cell growth, NCI panel, 48 h

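Briefly, cells in 96-well plates were exposed to five compound concentrations for 48 h, and endpoints were estimated by linear interpolation. Here, GI50 denotes the concentration required for 50% inhibition of growth.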 Calls of active or inactive are those of the source. Rule as the data show it: active = GI50 up to about 1.1 µM and inactive = higher. A value given as a limit tells only on which side of the number the result lay.

Consider `O=c1ccn2n1Cc1ccccc1C2`, for which the GI50 in the assay with OVCAR-3, with Hs-578T, with SK-MEL-28, in the assay on HOP-92, with U-251 and with SW-620 was > 100 µM (inactive) in each case. The GI50 with UACC-257, in the assay on HCC 2998, in the assay with SN12C, in the assay with COLO 205, in the assay on HT-29 and with MOLT-4 was > 100 µM (inactive) throughout. The GI50 in the assay on SF-539, with M14, in the assay on K562, with OVCAR-8, with NCI-H522 and with SNB-19 was > 100 µM (inactive) in each case. The GI50 in the assay on Malme-3M and with RXF 393 was > 100 µM (inactive) in each case.

For the compound `O=C(O)CCc1ccc(-c2ccccc2)[nH]1`, the GI50 in the assay on OVCAR-3, in the assay with Hs-578T, with SK-MEL-28, with HOP-92, with U-251 and in the assay on SW-620 was > 100 µM (inactive) each time. Besides, the GI50 with UACC-257, in the assay with HCC 2998, with SN12C, in the assay with COLO 205, in the assay with HT-29 and in the assay on MOLT-4 was > 100 µM (inactive) in each case. Besides, the GI50 in the assay with SF-539, in the assay with M14, in the assay with K562, in the assay on OVCAR-8, in the assay on NCI-H522 and in the assay on SNB-19 was > 100 µM (inactive) in each case. In addition, the GI50 in the assay on Malme-3M and in the assay on RXF 393 was > 100 µM (inactive) each time.

As to `CC[P+](C#Cc1ccccc1)(c1ccccc1)c1ccccc1`, the GI50 is 1.31 µM (inactive) with OVCAR-3; 2.86 µM (inactive) in the assay on Hs-578T; 1.95 µM (inactive) in the assay with SK-MEL-28; 1.92 µM (inactive) with HOP-92; 0.562 µM (active) in the assay on U-251; 1.17 µM (inactive) with SW-620. The GI50 in the assay on UACC-257 is 1.21 µM (inactive); in the assay on HCC 2998, 1.97 µM (inactive); in the assay with SN12C it was 1.75 µM (inactive); in the assay with COLO 205, 1.06 µM (active); in the assay on HT-29, 2.43 µM (inactive); with MOLT-4, 1.36 µM (inactive). The GI50 is 1.79 µM (inactive) in the assay with SF-539; 1.66 µM (inactive) with M14; 0.224 µM (active) in the assay on K562; 1.76 µM (inactive) with OVCAR-8; 1.36 µM (inactive) with NCI-H522; 5.92 µM (inactive) in the assay on SNB-19. Also, the results for the GI50 with Malme-3M and in the assay with RXF 393 were 1.59 µM (inactive) and 0.966 µM (active), respectively.

As for `COC1/C=C/OC2(C)Oc3c(C)c(O)c4c(c3C2=O)C(=O)C=C(NC(=O)/C(C)=C\C=C\C(C)C(OC=O)C(C)C(O)C(C)C(OC(C)=O)C1C)C4=O` (stereo not given), the GI50 is 3.76 µM (inactive) with OVCAR-3; 15.2 µM (inactive) in the assay on Hs-578T; 6.64 µM (inactive) in the assay on SK-MEL-28; 13.5 µM (inactive) in the assay with HOP-92; 20.6 µM (inactive) in the assay on U-251; 4.04 µM (inactive) in the assay on SW-620. The GI50 in the assay with UACC-257 is 11.4 µM (inactive); with HCC 2998, 19.6 µM (inactive); in the assay with SN12C it was 15.2 µM (inactive); in the assay with COLO 205, 4.59 µM (inactive); in the assay on HT-29, 10.5 µM (inactive); in the assay on MOLT-4 it was 3.01 µM (inactive). In addition, the GI50 in the assay with SF-539 was 17.6 µM (inactive); in the assay with M14 it was 8.65 µM (inactive); in the assay with K562, 3.61 µM (inactive); in the assay on OVCAR-8 it was 15.3 µM (inactive); in the assay with NCI-H522, 2.45 µM (inactive); with SNB-19, 14.5 µM (inactive). Also, the GI50 in the assay on Malme-3M was 13.4 µM (inactive); with RXF 393 it was 7.67 µM (inactive).

For `CNc1nc2n(CCO)c(-c3ccccc3)c(-c3ccccc3)nc-2c(=O)n1`, the GI50 in the assay with OVCAR-3 was 14.8 µM (inactive); in the assay with Hs-578T, > 50 µM (inactive); with SK-MEL-28, > 50 µM (inactive); with HOP-92 it was > 50 µM (inactive); in the assay with U-251 it was > 50 µM (inactive); in the assay on SW-620 it was > 50 µM (inactive). Also, the GI50 with UACC-257, in the assay on HCC 2998, in the assay on SN12C, in the assay with COLO 205, with HT-29 and in the assay with MOLT-4 was > 50 µM (inactive) throughout. Also, the GI50 with SF-539, with M14, in the assay on K562, in the assay on OVCAR-8, in the assay with NCI-H522 and in the assay with SNB-19 was > 50 µM (inactive) throughout. Also, the GI50 with Malme-3M and in the assay with RXF 393 was > 50 µM (inactive) each time.

For `N=C(N)NS(=O)(=O)c1ccc(NC(=O)c2ccc3nc4ccccc4c(N)c3c2)cc1`, the GI50 in the assay on OVCAR-3, in the assay with Hs-578T, in the assay with SK-MEL-28, in the assay with HOP-92, in the assay on U-251 and in the assay with SW-620 was > 100 µM (inactive) each time. Further, the GI50 with UACC-257, in the assay with HCC 2998, in the assay on SN12C, in the assay with COLO 205, in the assay with HT-29 and with MOLT-4 was > 100 µM (inactive) throughout. For the same compound, the GI50 in the assay on SF-539, in the assay with M14, in the assay on K562, in the assay on OVCAR-8, in the assay on NCI-H522 and in the assay on SNB-19 was > 100 µM (inactive) each time. In addition, the GI50 in the assay with Malme-3M and in the assay on RXF 393 was > 100 µM (inactive) each time.

(Values after ChEMBL document CHEMBL1201862, “PubChem BioAssay data set” (2004).)
